Results: patent US20070197509A1, “Compositions and methods for modulating gated ion channels” (PainCeptor Pharma Corporation, priority 2005, published 2007)
“Also recorded” adds a separate entry of the source.

Key:
hASIC1a [1] = molecular target: T1, hASIC1a (Homo sapiens, UniProt P78348); experiment: Two-electrode voltage clamp in Xenopus laevis oocytes expressing hASIC1a (OpusExpress); format: cell-based; parameters: expressed in transfected cells; host or cells: Xenopus laevis oocytes, nuclear microinjection of cDNA (e.g. in pCDNA3); conditions: for effect on hASIC1a current evoked by pH 6.5 in oocytes (FIGS. 4A-4D): OpusExpress, two-electrode voltage clamp, dose-response
T1 sequence (P78348 1-528): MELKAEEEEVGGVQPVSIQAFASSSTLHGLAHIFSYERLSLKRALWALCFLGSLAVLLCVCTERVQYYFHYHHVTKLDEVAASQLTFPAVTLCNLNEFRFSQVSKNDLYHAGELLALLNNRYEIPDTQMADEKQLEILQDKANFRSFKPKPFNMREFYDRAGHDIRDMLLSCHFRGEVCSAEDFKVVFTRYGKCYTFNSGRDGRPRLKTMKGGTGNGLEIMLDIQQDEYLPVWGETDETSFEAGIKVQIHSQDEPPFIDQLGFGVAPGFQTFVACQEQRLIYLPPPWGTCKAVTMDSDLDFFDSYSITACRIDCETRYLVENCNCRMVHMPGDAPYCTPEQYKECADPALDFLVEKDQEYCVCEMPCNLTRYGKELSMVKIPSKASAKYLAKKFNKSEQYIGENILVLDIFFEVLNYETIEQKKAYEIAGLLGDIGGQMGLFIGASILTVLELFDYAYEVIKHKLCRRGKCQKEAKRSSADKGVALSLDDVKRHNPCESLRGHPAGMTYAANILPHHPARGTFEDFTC
In short: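 Two-electrode voltage clamp on Xenopus oocytes expressing homomeric hASIC1a, recorded on an automated multichannel system. Oocytes superfused with Ringer (HEPES, pH 7.4); currents evoked by MES-buffered acidic Ringer, with compound present in both control and acidic solutions, at room temperature.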

hASIC1a [2] = molecular target: T1, hASIC1a; experiment: FlexStation/FLIPR calcium-imaging assay, acid (MES)-induced response in ASIC1a expressing cells; format: cell-based; parameters: expressed in transfected cells
Description: Identification of ASIC Antagonists Using Calcium-Imaging
ASIC1a expressing HEK293 or CHO cells are grown in culture medium (DMEM with 10% FBS), in polystyrene culture flasks ([…]) at 37° C. in a humidified atmosphere of 5% CO2. Confluency of cells should be 80-90% on day of plating. Cells are rinsed with 10 ml of PBS and re-suspended by addition of culture medium and trituration with a 25 ml pipette.
The cells are seeded at a density of approximately 1×10^5 cells/ml for HEK293 and 8×10^4 for CHO cells (100 μl/well) in black-walled, clear bottom, poly-D-lysin pre-treated 96-well plates. Plated cells were allowed to proliferate for 48 h before loading with dye.
Fluo-4/AM (1 mg, Molecular Probes) is dissolved in 912 μl DMSO. The Fluo-4/AM stock solution (1 mM) is diluted with culture medium to a final concentration of 2 μM (loading solution).
The culture medium is aspirated from the wells, and 80 μl of the Fluo-4/AM loading solution is added to each well. The cells are incubated at 37° C. for 30 min. When CHO cells are used, probenicid at 2.5 mM (final concentration) is added in the loading solution.
After the loading period (15-20 min., the loading solution is aspirated and the cells are washed twice with 100 μl modified Assay Buffer (145 mM NaCl, 5 mM KCl, 5 mM CaCl2, 1 mM MgCl2, 10 mM HEPES, pH 7.4) to remove extracellular dye. Following the second wash, 100 μl modified Assay Buffer is added to each well and the fluorescence is measured in FLIPR™ or FlexStation™ (Molecular Devices, USA), or any other suitable equipment known to the skilled in the art. When CHO cells are used, probenicid at 2.5 mM (final concentration) is added in the wash buffer.
First addition: 50 μl test solution at a rate of 26 μl/sec and a starting height of 125 μl
Second addition: 50 μl MES solution (20 mM, 5 mM final concentration) at a rate of 26 μl/sec and a starting height of 115 μl.
Reading intervals: pre-incubation—120 sec. antagonist phase, addition of MES at 145 sec. and reading time with agonist 100 sec (total run time of 240 sec).
Fluorescence obtained after stimulation is corrected for the mean basal fluorescence (in modified Assay Buffer).
The MES-induced peak calcium response (or change in membrane potential), in the presence of test substance, is expressed relative to the MES response alone. Test substances that block the MES-induced calcium response (or change in membrane potential) are re-tested in triplicates. Confirmed hits are picked for further characterization by performing full dose-response curves to determine potency of each hit compound as represented by the IC50 values (i.e., the concentration of the test substance which inhibits 50% of the MES-induced calcium and/or membrane potentiation response; see, for example, FIG. 1).

[3] = calcium mobilization assay, HEK293, n=3-7, read-out: FPAT-ASIC1a human/HEK293/k21 IC50

**Q.** For COc1ccc(C(=O)CN2CCN(c3cc(C)nc4ccccc34)CC2)cc1 [Compound A, 1-(4-methoxy-phenyl)-2-[4-(2-methyl-quinolin-4-yl)-piperazin-1-yl]-ethanone], which “effect on hASIC1a current evoked by pH 6.5 in oocytes (FIGS. 4A-4D)” value (“effect on hASIC1a current evoked” below) (hASIC1a [1]) is on record?
**A.** Its value is “effective modulators”.

**Q.** And the IC50 (hASIC1a [2]; [3])?
**A.** The IC50 was less than 10 µM.

**Q.** Fc1cccc2c(OC3CCN(Cc4ccccc4)CC3)cc(C(F)(F)F)nc12 [Compound B, 4-(1-benzyl-piperidin-4-yloxy)-8-fluoro-2-trifluoromethyl-quinoline] was tested. Which “effect on hASIC1a current evoked” value (hASIC1a [1]) did it give?
**A.** Its value is “dose-dependent reduction”.

**Q.** And the IC50 (hASIC1a [2]; [3])?
**A.** The IC50 was less than 10 µM.

**Q.** Which IC50 (hASIC1a [1]; OpusExpress (OX), Tables A-F, h1a printed in some cells only, read-out: Biological Data (IC50 uM) h1a (OX)) does the source give for Cc1cc(OC2CCN(Cc3ccccc3)CC2)c2ccccc2n1 [Compound R, 4-(1-benzyl-piperidin-4-yloxy)-2-methyl-quinoline] here?
**A.** The IC50 was 2 to 10 µM.

**Q.** What about the “effect on hASIC1a current evoked” value (hASIC1a [1]) of the same molecule?
**A.** Its value is “effective modulators; also recorded: dose-dependent reduction”.

**Q.** And the IC50 (hASIC1a [1]; Table H, read-out: IC50 (μM) Opus Express (h1a))?
**A.** Its IC50 is 1.5 µM.

**Q.** What about the IC50 (hASIC1a [2]; FlexStation (Flex), Tables A-F, read-out: Biological Data (IC50 uM) h1a (Flex)) of the same molecule?
**A.** Its IC50 is 15 to 25 µM.

**Q.** And the “inhibitory effect on acid-induced hASIC1a activity (FIG. 1)” value (hASIC1a [2]; HEK-293 transiently expressing hASIC1a, intracellular calcium, increasing concentrations)?
**A.** Its value is “dose-dependently inhibited”.
